Experimental data from publication PMC10235687, “Venetoclax is a potent hepsin inhibitor that reduces the metastatic and prothrombotic phenotypes of hepsin-expressing colorectal cancer cells” (Frontiers in Molecular Biosciences, 2023).
pIC50: −log10 of the molar value.

Molecular target: T1, Hepsin (Homo sapiens, UniProt P05981)
T1 construct: gene HPN; Recombinant hepsin (R&D Systems)
Test: Fluorogenic protease assay with recombinant hepsin ([…]) and BOC-Gln-Arg-Arg-AMC ([…]), pH […] h incubation with drug
Type: biochemical

T1 sequence (P05981 45-162 limits assumed): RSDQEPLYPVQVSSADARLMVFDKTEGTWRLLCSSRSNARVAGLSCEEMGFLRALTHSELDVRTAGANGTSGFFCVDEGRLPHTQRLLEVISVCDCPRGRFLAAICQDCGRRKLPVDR
T1 sequence (P05981 163-417 limits assumed): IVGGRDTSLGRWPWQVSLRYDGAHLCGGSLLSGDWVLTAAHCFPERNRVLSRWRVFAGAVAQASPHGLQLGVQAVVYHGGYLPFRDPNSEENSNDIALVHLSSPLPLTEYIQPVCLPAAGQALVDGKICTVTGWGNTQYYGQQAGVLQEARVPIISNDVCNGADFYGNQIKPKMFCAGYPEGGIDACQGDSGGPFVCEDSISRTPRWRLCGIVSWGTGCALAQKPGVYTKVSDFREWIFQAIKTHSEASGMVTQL

CC1(C)CCC(CN2CCN(c3ccc(C(=O)NS(=O)(=O)c4ccc(NCC5CCOCC5)c([N+](=O)[O-])c4)c(Oc4cnc5[nH]ccc5c4)c3)CC2)=C(c2ccc(Cl)cc2)C1 [Venetoclax]
pIC50: 6.32
